Measurements: patent publication US4634704A, “Anti-allergic five membered heterocyclic ring containing N-(bicyclic heterocycyl)-4-piperidinamines” (Janssen Pharmaceutica, N.V., priority 1984, dated 1987)
Structures can show the parent of a compound that is named as a salt. Where two headings read alike, the source gives them in different places.

Experiments:
[1] = test system: compound 48/80-induced lethality; test: Protection of rats from compound 48/80-induced lethality; type: in vivo, rat (male, inbred Wistar strain); conditions: subcutaneous or oral, 1 h before compound 48/80 0.5 mg/kg i.v., survival after 4 h; for ED50: Rattus norvegicus, 4 h, read-out: compound 48/80 lethality test in rats-ED50, dose protecting 50% of animals
Experimental: Protection of rats from compound 48/80-induced lethality.
The protection from compound 48/80-induced lethal circulatory collapse appears to be a simple way of evaluating quantitatively the antihistaminic activity of test compounds. Male rats of an inbred Wistar strain, weighing 240-260 g were used in the experiment. After overnight starvation the rats were transferred to conditioned laboratories (temp.=21±1° C., relative humidity=65±5%).
The rats were treated subcutaneously or orally with a test compound or with the solvent (NaCl solution, 0.9%). […] Survival after 4 hours is therefore considered to be a safe criterion of a protective effect of drug administration.
The ED50 -values of the compounds of formula (I) are listed in the first column of table 1. Said ED50 -values are the values in mg/kg body weight at which the tested compounds protect 50% of the tested animals against compound 48/80-induced lethality.

[2] = test system: effects of serotonin in the gastric lesion test; test: Antagonistic activity on the effects of serotonin in the gastric lesion test (lesions induced by compound 48/80); type: in vivo, rat (male, Wistar inbred strain)
Description: The compounds of formula (I) and the pharmaceutically acceptable acid addition salts thereof are also potent serotonin-antagonists. The potency of the subject compounds as serotonin-antagonists is clearly evidenced by the results obtained in the following tests wherein the antagonistic activity of the subject compounds on the effect of serotonin is examined.
Antagonistic activity on the effects of serotonin in the gastric lesion test.
The shock, followed by dead, can be avoided if the rats are pretreated with a classical H 1 antagonist.
Male rats of a Wistar inbred strain, weighing 220-250 g, were starved overnight, water being available ad libitum. The test compounds were administered orally as a solution or as a suspension in aqueous medium. A control rat and a "blank" rat received the test compound. One hour later 5-[4-(diphenylmethyl)-1-piperazinylmethyl]-1-methyl-1H-benzimidazole-2-methanol was administered subcutaneously to all rats at the dose of 2.5 mg/kg.
Four hours after the intravenous injection of compound 48/80, the rats were decapitated and the stomachs were removed. Subsequently the stomachs were inspected for distension and contents (blood, fluid, food) and thoroughly rinsed. The macroscopic lesions were scored from 0 to +++, 0 corresponding to the complete absence of visible lesions and the highest score corresponding to reddish rough patches covering more than half the glandular area.

[3] = test system: effects of serotonin in the gastric lesion test; conditions: rats injected with compound 48/80; known serotonin-antagonists; cited from earlier work
[4] = Rattus norvegicus; read-out: gastric lesion test ED50
[5] = Rattus norvegicus, read-out: gastric lesion test ED50

`Fc1ccccc1Cn1c(NC2CCN(CCNc3nccs3)CC2)nc2ccccc21` [Compound 31] gave an ED50 [1] of 0.08 mg/kg and an ED50 [2, 4] of 0.63 mg/kg.
With `c1coc(Cn2c(NC3CCN(CCNc4nccs4)CC3)nc3ccccc32)c1` [Compound 48, 1-(2-furanylmethyl)-N-[1-[2-(2-thiazolylamino)ethyl]-4-piperidinyl]-1H-benzimidazol-2-amine] the ED50 [1] was 0.08 mg/kg and the ED50 [2, 4] was 0.63 mg/kg.
`c1ccc2c(c1)nc(NC1CCN(CCNc3nccs3)CC1)n2Cc1cscn1` [Compound 49, N-[1-[2-(2-thiazolylamino)ethyl]-4-piperidinyl]-1-(4-thiazolylmethyl)-1H-benzimidazol-2-amine ethanedioate (2:5)] showed an ED50 [1] of 0.04 mg/kg and an ED50 [2, 4] of 0.63 mg/kg.
For `Fc1ccc(Cn2c(NC3CCN(C4CCN(c5nccs5)CC4)CC3)nc3ccccc32)cc1` [Compound 52], the ED50 [1] was 1.25 mg/kg and the ED50 [2, 4] was 0.63 mg/kg.
For `Fc1ccc(Cn2c(NC3CCN(CCNc4nccs4)CC3)nc3ccccc32)cc1` [Compound 58], the “compound 48/80 lethality test in rats-ED50” value ([1]; dose protecting 50% of animals, 0.5 mg/kg, 240 min) was 0.02 mg/kg body weight and the ED50 [2, 5] was 0.04 mg/kg.
Molecule `Cc1ccc(Cn2c(NC3CCN(CCNc4nccs4)CC3)nc3ccccc32)cc1` [Compound 62] has an ED50 [1] of 0.16 mg/kg and an ED50 [2, 4] of 0.63 mg/kg.
Molecule `Fc1ccc(Cn2c(NC3CCN(CCOc4nccs4)CC3)nc3ccccc32)cc1` [Compound 72, 1-[(4-fluorophenyl)methyl]-N-[1-[2-(2-thiazolyloxy)ethyl]-4-piperidinyl]-1H-benzimidazol-2-amine] has an ED50 [1] of 0.08 mg/kg and an ED50 [2, 4] of 0.63 mg/kg.
With `Cn1ccnc1SCCN1CCC(Nc2nc3ccccc3n2Cc2ccc(F)cc2)CC1` [Compound 75, 1-[(4-fluorophenyl)methyl]-N-[1-[2-[(1-methyl-1H-imidazol-2-yl)thio]ethyl]-4-piperidinyl]-1H-benzimidazol-2-amine] the ED50 [1] was 0.08 mg/kg and the ED50 [2, 5] was 0.08 mg/kg.
Work on `Fc1ccc(Cn2c(NC3CCN(CCNc4ncc[nH]4)CC3)nc3ccccc32)cc1` [Compound 79, 1-[(4-fluorophenyl)methyl]-N-[1-[2-(1H-imidazol-2-ylamino)ethyl]-4-piperidinyl]-1H-benzimidazol-2-amine] yielded an ED50 [1] of 0.02 mg/kg and an ED50 [2, 5] of 0.04 mg/kg.
In the case of `CC(C)n1ccnc1NCCN1CCC(Nc2nc3ccccc3n2Cc2ccc(F)cc2)CC1.O` [Compound 81, 1-[(4-fluorophenyl)methyl]-N-[1-[2-[[1-(1-methylethyl)-1H-imidazol-2-yl]amino]-ethyl]-4-piperidinyl]-1H-benzimidazol-2-amine mono hydrate], the ED50 [1] is reported as 0.04 mg/kg and the ED50 [2, 4] is reported as 0.31 mg/kg.
In the case of `Cc1coc(NCCN2CCC(Nc3nc4ccccc4n3Cc3ccc(F)cc3)CC2)n1` [Compound 84, 1-[(4-fluorophenyl)methyl]-N-[1-[2-[(4-methyl-2-oxazolyl)amino]ethyl]-4-piperidinyl]-1H-benzimidazol-2-amine], the ED50 [1] is reported as 0.16 mg/kg and the ED50 [2, 4] is reported as 0.63 mg/kg.
`Cc1csc(NCCN2CCC(Nc3nc4ccccc4n3Cc3ccc(F)cc3)CC2)n1` [Compound 85, 1-[(4-fluorophenyl)methyl]-N-[1-[2-[(4-methyl-2-thiazolyl)amino]ethyl]-4-piperidinyl]-1H-benzimidazol-2-amine] showed an ED50 [1] of 0.08 mg/kg and an ED50 [2, 5] of 0.04 mg/kg.
`Fc1ccc(Cn2c(NC3CCN(CCNc4nc(-c5ccncc5)cs4)CC3)nc3ccccc32)cc1` [Compound 86] showed an ED50 [1] of 0.31 mg/kg and an ED50 [2, 4] of 1.25 mg/kg.
With `Fc1ccc(Cn2c(NC3CCN(CCNc4nc(-c5ccccn5)cs4)CC3)nc3ccccc32)cc1` [Compound 87] the ED50 [1] was 0.31 mg/kg and the ED50 [2, 4] was 0.63 mg/kg.
`N=C(N)Nc1nc(CCN2CCC(Nc3nc4ccccc4n3Cc3ccc(F)cc3)CC2)cs1` [Compound 90, N-[4-[2-[4-[[1-[(4-fluorophenyl)methyl]-1H-benzimidazol-2-yl]amino]-1-piperidinyl]ethyl-2-thiazolyl]guanidinetrihydrobromide] showed an ED50 [1] of 0.04 mg/kg and an ED50 [2, 4] of 0.31 mg/kg.
`Cc1sc(N)nc1CCN1CCC(Nc2nc3ccccc3n2Cc2ccc(F)cc2)CC1` [Compound 94, N-[1-[2-(2-amino-5-methyl-4-thiazolyl)ethyl]-4-piperidinyl]-1-[(4-fluorophenyl)methyl]-1H-benzimidazol-2-amine] showed an ED50 [1] of 0.08 mg/kg and an ED50 [2, 5] of 0.08 mg/kg.
For `CNc1nc(CCN2CCC(Nc3nc4ccccc4n3Cc3ccc(F)cc3)CC2)cs1` [Compound 98, 1-[(4-fluorophenyl)methyl]-N-[1-[2-[2-(methylamino)-4-thiazolyl]-ethyl]-4-piperidinyl]-1H-benzimidazol-2-amine], the ED50 [1] was 0.16 mg/kg and the ED50 [2, 4] was 0.16 mg/kg.
`O=C(c1ccccc1)N(CCN1CCC(Nc2nc3ccccc3n2Cc2ccc(F)cc2)CC1)c1nccs1` [Compound 100, N-[2-[4-[[1-[(4-fluorophenyl)methyl]-1H-benzimidazol-2-yl]amino]-1-piperidinyl]ethyl]-N-(2-thiazolyl)benzamide] showed an ED50 [1] of 0.31 mg/kg and an ED50 [2, 4] of 0.63 mg/kg.
In the case of `CC(=O)N(CCN1CCC(Nc2nc3ccccc3n2Cc2ccc(F)cc2)CC1)c1nccs1` [Compound 102, N-[2-[4-[[1-[(4-fluorophenyl)methyl]-1H-benzimidazol-2-yl]-amino]-1-piperidinyl]ethyl]-N-(2-thiazolyl)acetamide], the ED50 [1] is reported as 0.16 mg/kg and the ED50 [2, 4] is reported as 1.25 mg/kg.
`CNC(=O)N(CCN1CCC(Nc2nc3ccccc3n2Cc2ccc(F)cc2)CC1)c1nccs1` [Compound 103, N-[2-[4-[[1-[(4-fluorophenyl)methyl]-1H-benzimidazol-2-yl]amino]-1-piperidinyl]ethyl]-N'-methyl-N-(2-thiazolyl)urea] gave an ED50 [1] of 0.08 mg/kg and an ED50 [2, 4] of 0.63 mg/kg.
In the case of `CN(C)CCCSc1ccccc1NC(=O)/C=C/c1ccccc1` [cinanserin], the “prevention of cyanosis of ears and extremities, lesions in the glandular area of the stomach and abnormal gastric distension” value (from here on “prevention”) [3] is listed as “prevent completely”.
In the case of `CN1CCC(=C2c3ccccc3C=Cc3ccccc32)CC1` [cyproheptadine], the “prevention” value [3] is given as “prevent completely”.
For `CN1C[C@H](CNC(=O)OCc2ccccc2)C[C@@H]2c3cccc4c3c(cn4C)C[C@H]21` [metergoline], the “prevention” value [3] is given as “prevent completely”.
For `CC[C@@H](CO)NC(=O)[C@@H]1C=C2c3cccc4c3c(cn4C)C[C@H]2N(C)C1` [methysergide], the “prevention” value [3] is listed as “prevent completely”.
In the case of `CN1CCN2c3ccccc3Cc3ccccc3C2C1` (stereo not drawn) [mianserin], the “prevention” value [3] is listed as “prevent completely”.
In the case of `NC(=O)C1(N2CCCCC2)CCN(CCCC(=O)c2ccc(F)cc2)CC1` [pipamperone], the “prevention” value [3] is given as “prevent completely”.
For `CN1CCC(=C2c3ccccc3CCc3sccc32)CC1` [pizotifen], the “prevention” value [3] is listed as “prevent completely”.
In the case of `O=C(CCCN1CCC2(CC1)C(=O)NCN2c1ccccc1)c1ccc(F)cc1` [spiperone], the “prevention” value [3] is given as “prevent completely”.
